Measured values: ChEMBL document CHEMBL5236572, “Bioactive Aurones, Indanones, and Other Hemiindigoid Scaffolds: Medicinal Chemistry and Photopharmacology Perspectives” (J Med Chem, 2022)
Converted amounts (≈) assume the structure as drawn. Each block holds one molecule with its values, some of them ahead of it.

How the values were obtained:
[1] = target: Tubulin (Sus scrofa, UniProt P02554+P02550); assay: Inhibition of porcine brain tubulin polymerization preincubated for 1 mins followed by GTP addition and measured for 60 mins at 1 min interval by fluorescence assay
[2] = test system: HeLa; assay: Antiproliferative activity against human HeLa cells assessed as reduction in cell viability incubated for 48 hrs by MTT assay; type: functional, cell-based
[3] = test system: A549; assay: Antiproliferative activity against human A549 cells assessed as reduction in cell viability incubated for 48 hrs by MTT assay; type: functional, cell-based; conditions: A549, 48 h
[4] = test system: Bel-7402; assay: Antiproliferative activity against human Bel-7402 cells assessed as reduction in cell viability incubated for 48 hrs by MTT assay; type: functional, cell-based; conditions: Bel-7402, 48 h
[5] = test system: PC-3; assay: Antiproliferative activity against human PC-3 cells assessed as reduction in cell viability incubated for 48 hrs by MTT assay; type: functional, cell-based; conditions: PC-3, 48 h
[6] = test system: K562; assay: Antiproliferative activity against human K562 cells assessed as reduction in cell viability incubated for 48 hrs by MTT assay; type: functional, cell-based; conditions: K562, 48 h
[7] = test system: THP-1; assay: Antiproliferative activity against human THP-1 cells assessed as reduction in cell viability incubated for 48 hrs by sulforhodamine assay; type: functional, cell-based; conditions: THP-1, 48 h
[8] = test system: HCT-116; assay: Antiproliferative activity against human HCT-116 cells assessed as reduction in cell viability incubated for 48 hrs by sulforhodamine assay; type: functional, cell-based; conditions: HCT-116, 48 h
[9] = test system: MCF7; assay: Antiproliferative activity against human MCF7 cells assessed as reduction in cell viability incubated for 48 hrs by sulforhodamine assay; type: functional, cell-based; conditions: MCF7, 48 h
[10] = test system: T47D; assay: Antiproliferative activity against human T47D cells assessed as reduction in cell viability incubated for 48 hrs by sulforhodamine assay; type: functional, cell-based
[11] = test system: A549; assay: Antiproliferative activity against human A549 cells assessed as reduction in cell viability incubated for 48 hrs by sulforhodamine assay; type: functional, cell-based; conditions: A549, 48 h
[12] = Inhibition of Saccharomyces cerevisiae full-length ai5gamma intron self-splicing by fluorimetric assay
[13] = test system: Candida parapsilosis; assay: Antifungal activity against Candida parapsilosis assessed as reduction in fungal growth; type: functional; conditions: Lodderomyces parapsilosis
[14] = test system: MCF7; assay: Antiproliferative activity against human MCF7 cells assessed as reduction in cell viability incubated for 24 hrs by soft agar assay; type: functional, cell-based; conditions: MCF7, 24 h
[15] = test system: MDA-MB-231; assay: Antiproliferative activity against human MDA-MB-231 cells assessed as reduction in cell viability incubated for 24 hrs by soft agar assay; type: functional, cell-based; conditions: MDA-MB-231, 24 h
[16] = Antioxidant activity assessed as DPPH radical scavenging activity at 100 uM measured for 20 mins by spectrophotometric analysis; type: functional
[17] = Antioxidant activity assessed as DPPH radical scavenging activity at 100 uM measured for 60 mins by spectrophotometric analysis; type: functional
[18] = Antioxidant activity assessed as ABTS radical scavenging activity at 100 uM incubated for 12 to 16 hrs in dark; type: functional; conditions: time 12-16 hrs
[19] = Inhibition of AAPH induced lipid peroxidation; conditions: dose or concentration not given here
[20] = target: Serine/threonine-protein kinase pim-1 (Homo sapiens, UniProt P11309); assay: Inhibition of PIM1 (unknown origin) using poly-Glu-Tyr (4:1) as substrate in presence of [gamma-33P-ATP] incubated for 2 hrs by radiometric kinase assay
Sequence of Serine/threonine-protein kinase pim-1 (P11309 whole entry): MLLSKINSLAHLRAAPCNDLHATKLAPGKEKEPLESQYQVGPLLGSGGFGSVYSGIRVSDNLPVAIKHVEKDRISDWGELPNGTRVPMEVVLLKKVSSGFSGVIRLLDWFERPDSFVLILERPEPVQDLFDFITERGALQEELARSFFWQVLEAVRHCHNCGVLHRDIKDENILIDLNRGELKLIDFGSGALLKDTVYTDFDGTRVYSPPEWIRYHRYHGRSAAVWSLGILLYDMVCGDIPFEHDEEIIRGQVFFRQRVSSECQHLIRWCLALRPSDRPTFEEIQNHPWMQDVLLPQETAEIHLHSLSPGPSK

[21] = target: T1, Amine oxidase [flavin-containing] A (Homo sapiens, UniProt P21397); assay: Inhibition of recombinant human MAO-A assessed as inhibition of 4-hydroxyquinoline formation using kynuramine as substrate incubated for 20 mins by fluorescence assay
T1 sequence (P21397 whole entry): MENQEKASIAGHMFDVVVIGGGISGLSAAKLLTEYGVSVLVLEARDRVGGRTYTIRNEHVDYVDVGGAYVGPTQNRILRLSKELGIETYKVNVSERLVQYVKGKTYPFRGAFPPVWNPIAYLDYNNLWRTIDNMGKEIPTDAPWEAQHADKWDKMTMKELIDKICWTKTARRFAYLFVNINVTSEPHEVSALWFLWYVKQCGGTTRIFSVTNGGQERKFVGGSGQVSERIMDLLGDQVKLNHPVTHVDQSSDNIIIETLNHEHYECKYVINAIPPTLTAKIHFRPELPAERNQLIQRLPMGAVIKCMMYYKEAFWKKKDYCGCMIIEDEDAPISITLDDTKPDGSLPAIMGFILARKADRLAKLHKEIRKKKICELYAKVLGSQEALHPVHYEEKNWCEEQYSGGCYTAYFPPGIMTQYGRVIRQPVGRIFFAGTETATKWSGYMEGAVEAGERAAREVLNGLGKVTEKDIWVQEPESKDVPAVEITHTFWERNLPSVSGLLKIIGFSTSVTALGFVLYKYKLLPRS

[22] = target: T2, Amine oxidase [flavin-containing] B (Homo sapiens, UniProt P27338); assay: Inhibition of recombinant human MAO-B assessed as inhibition of 4-hydroxyquinoline formation using kynuramine as substrate incubated for 20 mins by fluorescence assay
T2 sequence (P27338 whole entry): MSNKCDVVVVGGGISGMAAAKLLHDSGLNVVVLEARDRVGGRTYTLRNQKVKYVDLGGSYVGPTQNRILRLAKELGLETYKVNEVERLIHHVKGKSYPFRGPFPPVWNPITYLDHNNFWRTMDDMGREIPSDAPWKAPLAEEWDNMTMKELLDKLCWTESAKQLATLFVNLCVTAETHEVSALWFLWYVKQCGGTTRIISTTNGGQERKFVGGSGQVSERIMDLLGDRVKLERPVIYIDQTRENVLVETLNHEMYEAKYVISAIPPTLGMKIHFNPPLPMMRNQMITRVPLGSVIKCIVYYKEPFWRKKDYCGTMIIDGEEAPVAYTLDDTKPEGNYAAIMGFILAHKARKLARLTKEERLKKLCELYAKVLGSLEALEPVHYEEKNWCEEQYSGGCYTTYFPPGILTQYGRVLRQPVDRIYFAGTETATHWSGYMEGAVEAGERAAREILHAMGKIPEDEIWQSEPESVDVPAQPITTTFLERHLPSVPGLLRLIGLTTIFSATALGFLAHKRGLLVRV

[23] = species on record: Homo sapiens; assay: Selectivity index, ratio of IC50 for inhibition of recombinant human MAO-A to IC50 for inhibition of recombinant human MAO-B
[24] = target: Amyloid-beta precursor protein (Homo sapiens, UniProt P05067); assay: Binding affinity to human brain homogenate amyloid beta by radioligand competition binding assay; type: tissue-based
Sequence of Amyloid-beta precursor protein (P05067 whole entry): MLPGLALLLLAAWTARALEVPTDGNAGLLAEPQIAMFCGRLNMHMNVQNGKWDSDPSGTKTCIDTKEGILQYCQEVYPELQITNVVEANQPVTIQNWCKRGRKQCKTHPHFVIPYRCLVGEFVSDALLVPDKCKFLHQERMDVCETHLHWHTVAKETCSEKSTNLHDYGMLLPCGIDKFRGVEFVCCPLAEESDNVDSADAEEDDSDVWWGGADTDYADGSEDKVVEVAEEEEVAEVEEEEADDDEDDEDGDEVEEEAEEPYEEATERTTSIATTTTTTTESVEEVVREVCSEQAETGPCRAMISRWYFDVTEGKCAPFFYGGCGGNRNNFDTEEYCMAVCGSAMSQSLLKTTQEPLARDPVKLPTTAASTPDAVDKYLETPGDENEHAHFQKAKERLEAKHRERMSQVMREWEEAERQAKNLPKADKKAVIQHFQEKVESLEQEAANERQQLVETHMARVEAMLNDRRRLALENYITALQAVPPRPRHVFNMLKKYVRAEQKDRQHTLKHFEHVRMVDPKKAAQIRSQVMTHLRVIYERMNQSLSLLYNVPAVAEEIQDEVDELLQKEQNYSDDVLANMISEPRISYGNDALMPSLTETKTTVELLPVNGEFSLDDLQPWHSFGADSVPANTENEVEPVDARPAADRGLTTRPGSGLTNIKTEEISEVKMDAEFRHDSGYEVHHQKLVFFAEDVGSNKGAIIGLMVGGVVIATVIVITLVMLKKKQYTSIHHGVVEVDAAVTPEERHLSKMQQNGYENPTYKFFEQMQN

[25] = target: Serine/threonine-protein kinase AKT (Homo sapiens, UniProt P31751+Q9Y243+P31749); assay: Inhibition of AKT (unknown origin); type: protein assay
[26] = target: T3, Tyrosinase (Agaricus bisporus, UniProt O42713); assay: Inhibition of mushroom tyrosinase using L-DOPA as substrate incubated for 30 mins by spectrophotometric analysis
T3 sequence (O42713 whole entry): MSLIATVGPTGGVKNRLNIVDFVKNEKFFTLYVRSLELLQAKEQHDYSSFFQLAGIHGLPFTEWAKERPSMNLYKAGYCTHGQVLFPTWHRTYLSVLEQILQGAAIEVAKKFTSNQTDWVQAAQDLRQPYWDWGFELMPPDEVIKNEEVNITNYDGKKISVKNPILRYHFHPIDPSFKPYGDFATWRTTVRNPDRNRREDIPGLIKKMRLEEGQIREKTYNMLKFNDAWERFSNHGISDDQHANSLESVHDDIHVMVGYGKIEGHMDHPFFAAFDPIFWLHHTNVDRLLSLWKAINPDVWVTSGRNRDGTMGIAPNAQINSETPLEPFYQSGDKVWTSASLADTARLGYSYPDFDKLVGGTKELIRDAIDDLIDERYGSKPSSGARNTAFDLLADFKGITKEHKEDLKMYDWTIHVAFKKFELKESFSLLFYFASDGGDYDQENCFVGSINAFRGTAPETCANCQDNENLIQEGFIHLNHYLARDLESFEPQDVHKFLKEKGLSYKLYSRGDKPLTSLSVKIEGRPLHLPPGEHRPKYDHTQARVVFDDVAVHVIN

[27] = test system: MES-SA; assay: Antiproliferative activity against human MES-SA cells assessed as reduction in cell viability incubated for 72 hrs by PrestoBlue cell viability assay; type: functional, cell-based
[28] = test system: MES-SA/Dx5; assay: Antiproliferative activity against doxorubicin resistant human MES-SA/Dx5 cells assessed as reduction in cell viability incubated for 72 hrs by PrestoBlue cell viability assay; type: functional, cell-based; conditions: MES-SA/Dx5, 72 h
[29] = Selectivity ratio of IC50 for antiproliferative activity against human MES-SA cells to IC50 for antiproliferative activity against doxorubicin resistant human MES-SA/Dx5 cells; type: functional
[30] = test system: Ehrlich; assay: Antitumor activity against mouse Ehrlich ascites carcinoma allografted in Swiss albino mouse assessed as tumor growth inhibition at 20 mg/kg, ip for 12 days; type: functional; conditions: 288 h, time 12 day, read-out: TGI

IC50 [1]: 1.99 µM
IC50 [2]: 0.03 µM
IC50 [3]: 0.03 µM
IC50 [4]: 0.03 µM
IC50 [5]: 0.03 µM
IC50 [6]: 0.03 µM
SMILES: COc1cc2c(c(OC)c1OC)C/C(=C\c1cccc3[nH]ccc13)C2=O

IC50 [1]: 1.5 µM
IC50 [7]: 4 µM
IC50 [8]: 4 µM
IC50 [9]: 4 µM
IC50 [10]: 4 µM
IC50 [11]: 4 µM
SMILES: COc1cc(C2/C(=C/c3ccc([N+](=O)[O-])cc3)C(=O)c3cc(OC)c(OC)c(OC)c32)cc(OC)c1OC (centres undefined)

Ki [12]: 2.1 µM
MIC [13]: 53 µM (≈ 14.3 µg/mL)
SMILES: O=C1/C(=C/c2cc(O)c(O)c(O)c2)Oc2ccccc21

SMILES: COc1cc(C2/C(=C/c3ccc(F)cc3)C(=O)c3cc(OC)c(OC)c(OC)c32)cc(OC)c1OC (centres undefined)
IC50 [14]: 27 µM
IC50 [15]: 27 µM

SMILES: O=C1/C(=C/c2ccc(O)c(O)c2)Oc2cc(O)ccc21
Activity [16]: 89%
Activity [17]: 89%
Activity [18]: 71%
inhibition [19]: 53%

IC50 [20]: 18 µM
SMILES: O=C1/C(=C/c2cc(-c3ccncc3)[nH]n2)Oc2cc(O)cc(O)c21

IC50 [21]: > 100 µM
IC50 [22]: 0.0026 µM
Ratio IC50 [23]: > 38000
SMILES: COc1ccc2c(c1)O/C(=C\n1ccc3ccccc31)C2=O

Ki [24]: 0.24 µM
SMILES: CN(C)c1ccc(/C=C2\Nc3ccc(I)cc3C2=O)cc1

IC50 [25]: 0.207 µM
SMILES: Cc1ccc(C)c2c1C/C(=C\c1ccccc1)C2=O

IC50 [26]: 0.034 µM
SMILES: O=C1/C(=C/c2ccc(O)cc2O)Cc2ccccc21

SMILES: COc1cc(OC)c2c(c1)O/C(=C\c1ccc(N(C)C)cc1)C2=O
IC50 [27]: 60 µM
IC50 [28]: 15 µM
Ratio IC50 [29]: 4

IC50 [21]: 63 µM
IC50 [22]: 0.35 µM
SMILES: O=C1/C(=C(\O)c2cccc(Br)c2)Sc2ccccc21

SMILES: CCCCc1ccc(/C=C2\Nc3cc(OC)cc(OC)c3C2=O)cc1
Ratio IC50 [29]: 4.8

SMILES: COc1cc(C2/C(=C/c3ccc4c(c3)OCO4)C(=O)c3cc(OC)c(OC)c(OC)c32)cc(OC)c1OC (centres undefined)
inhibition in vivo at 20 mg/kg [30]: 45.5%
